Experimental data: patent publication US20100255580A1, “Differentiation of Human Embryonic Stem Cells” (LIFESCCAN, INC., priority 2007, published 2010)

Tested on: H9 embryonic stem cells
Format: cell-based, human
Conditions: low serum
Experimental: Controls for each group included cells plated on […]-coated dishes and cultured in MEF-conditioned medium or cells plated on MEFs and cultured in ES medium. All groups contained three biological replicates and each biological replicate was repeated on two separate gene chips.
Sample preparation, hybridization, and image analysis were performed according to the Affymetrix Human Genome U133 Plus 2.0 Array. Following normalization and a log transformation, data analysis was performed using OmniViz® software (MA) and […] (VizXLabs, WA). Significant differences in gene expression between the samples were evaluated using analysis of variance and an F-test with adjusted P-value (Benjamini and
Hochberg correction) of ≦b 0.05. Only genes with a present call in at least one group were included in the analysis.

Activin A: a member of the TGFβ superfamily; R&D Systems; Group 2 = Activin A (100 ng/ml)
log intensity, nudix (nucleoside diphosphate linked moiety X)-type motif 4 (on MATRIGEL): 2.095 | log intensity, olfactory receptor, family 52, subfamily A, member 1 (OR52A1) (on MATRIGEL): −0.3096 | log intensity, oxoglutarate dehydrogenase (lipoamide) (OGDH) (on MATRIGEL): −0.03259 | log intensity, partial LHX9 gene for LIM-homeobox 9, 3UTR (on MATRIGEL): −2.2486 | log intensity, partial mRNA for putative nuclear factor (on MATRIGEL): 1.552 | log intensity, phosphatidylinositol-4-phosphate 5-kinase, type I, beta (PIP5K1B) (on MATRIGEL): 1.349 | log intensity, phosphofructokinase, liver (PFKL) (on MATRIGEL): 2.039 | log intensity, pilin-like transcription factor (PILB) (on MATRIGEL): 3.145 | log intensity, pleiomorphic adenoma gene-like 1 (on MATRIGEL): −0.6468 | log intensity, plexin A2 (on MATRIGEL): 0.9305 | log intensity, polycythemia rubra vera 1; cell surface receptor (PRV1) (on MATRIGEL): −1.196 | log intensity, porcupine (MG61) (on MATRIGEL): 1.518 | log intensity, protease, serine, 4 (trypsin 4, brain) (on MATRIGEL): −0.3456 | log intensity, protein S (alpha) (PROS1) (on MATRIGEL): 0.5776 | log intensity, protocadherin 10 (on MATRIGEL): 1.767 | log intensity, putative 47 kDa protein (r448) (on MATRIGEL): −0.1239 | log intensity, putative 47 kDa protein (r770) (on MATRIGEL): 0.1565 | log intensity, putative sterol reductase SR-1 (TM7SF2) (on MATRIGEL): 1.669 | log intensity, ras homolog gene family, member B (on MATRIGEL): −0.1231 | log intensity, receptor tyrosine kinase-like orphan receptor 2 (ROR2) (on MATRIGEL): 1.533 | log intensity, regulator of G protein signalling 5 (RGS5) (on MATRIGEL): 3.0091 | log intensity, ret finger protein-like 2 (RFPL2) (on MATRIGEL): −2.155 | log intensity, secreted apoptosis related protein 2 (SARP2) (on MATRIGEL): 3.184 | log intensity, secreted frizzled-related protein 1 (on MATRIGEL): 1.649 | log intensity, sialyltransferase (STHM) (on MATRIGEL): −0.6871 | log intensity, signal transducer and activator of transcription 3 (acute-phase response factor) (on MATRIGEL): −0.8373 | log intensity, singed (Drosophila)-like (sea urchin fascin homolog like) (SNL) (on MATRIGEL): 4.233 | log intensity, sodium dependent phosphate transporter isoform NaPi-IIb (on MATRIGEL): −0.3971 | log intensity, solute carrier (SLC25A18) (on MATRIGEL): 0.4037 | log intensity, solute carrier family 9 (sodiumhydrogen exchanger), isoform 5 (SLC9A5) (on MATRIGEL): 0.04749 | log intensity, stanniocalcin 1 (STC1), mRNA (on MATRIGEL): 2.394 | log intensity, stanniocalcin 1 (r1113) (on MATRIGEL): 2.487 | log intensity, testican 3 (HSAJ1454) (on MATRIGEL): −2.812 | log intensity, testis enhanced gene transcript (BAX inhibitor 1) (on MATRIGEL): −0.6952 | log intensity, thyrotropin-releasing hormone (TRH) (on MATRIGEL): −1.657 | log intensity, transcription factor 2, hepatic; LF-B3; variant hepatic nuclear factor (TCF2), transcript variant a (on MATRIGEL): −1.125 | log intensity, transcriptional activator of the c-fos promoter (CROC4) (on MATRIGEL): 0.6664 | log intensity, transmembrane tyrosine kinase mRNA (on MATRIGEL): −0.006089 | log intensity, tropomodulin, clone MGC: 3643 (on MATRIGEL): 0.3488 | log intensity, tryptase, alpha (on MATRIGEL): 2.991 | log intensity, tudor repeat associator with PCTAIRE 2 (on MATRIGEL): 2.158 | log intensity, tyrosine 3-monooxygenasetryptophan 5-monooxygenase activation protein, eta polypeptide (r705) (on MATRIGEL): 2.985 | log intensity, tyrosine 3-monooxygenasetryptophan 5-monooxygenase activation protein, eta polypeptide (r966) (on MATRIGEL): 3.483 | log intensity, AD036 mRNA (on MEFS): 1.603 | log intensity, ADP-ribosylation factor 4-like (ARF4L) (on MEFS): 4.48 | log intensity, BACE mRNA for beta-site APP cleaving enzyme I-476 (on MEFS): 1.446 | log intensity, BTB (POZ) domain containing 2 (BTBD2) (on MEFS): 2.325 | log intensity, CXCR4 gene encoding receptor CXCR4 (on MEFS): 6.361 | log intensity, Cluster Incl. AB002344: Human mRNA for KIAA0346 gene (r901) (on MEFS): 3.478 | log intensity, Cluster Incl. AB002344: Human mRNA for KIAA0346 gene (r941) (on MEFS): 3.317 | log intensity, Cluster Incl. L37033: Human FK-506 binding protein homologue (FKBP38) (on MEFS): 1.661 | log intensity, Cluster Incl. N80935: zb07g06.s1 Homo sapiens cDNA (on MEFS): 2.666 | log intensity, ESTs (r403) (on MEFS): 2.715 | log intensity, ESTs (r404) (on MEFS): 2.276 | log intensity, ESTs (r405) (on MEFS): −1.711 | log intensity, ESTs (r442) (on MEFS): 5.906 | log intensity, ESTs (r453) (on MEFS): −2.153 | log intensity, ESTs (r473) (on MEFS): 0.8364 | log intensity, ESTs (r491) (on MEFS): −0.4453 | log intensity, ESTs (r522) (on MEFS): 2.214 | log intensity, ESTs (r523) (on MEFS): 0.05049 | log intensity, ESTs (r524) (on MEFS): 2.399 | log intensity, ESTs (r556) (on MEFS): 0.7383 | log intensity, ESTs (r567) (on MEFS): 1.124 | log intensity, ESTs (r627) (on MEFS): 3.973 | log intensity, ESTs (r741) (on MEFS): 2.614 | log intensity, ESTs (r745) (on MEFS): 3.836 | log intensity, ESTs (r766) (on MEFS): 2.128 | log intensity, ESTs (r767) (on MEFS): −0.3504 | log intensity, ESTs (r891) (on MEFS): −0.1307 | log intensity, ESTs (r916) (on MEFS): 1.395 | log intensity, ESTs (r938) (on MEFS): −0.6132 | log intensity, ESTs (r980) (on MEFS): 0.5547 | log intensity, ESTs (r1021) (on MEFS): 0.6436 | log intensity, ESTs (r1022) (on MEFS): 3.471 | log intensity, ESTs (r1059) (on MEFS): 2.077 | log intensity, ESTs (r1060) (on MEFS): 2.463 | log intensity, ESTs (r1110) (on MEFS): 3.792 | log intensity, ESTs (r1115) (on MEFS): 2.521 | log intensity, ESTs, Highly similar to AF229172 1 class III myosin (on MEFS): 0.002417 | log intensity, ESTs, Moderately similar to ALU4_HUMAN ALU SUBFAMILY SB2 (on MEFS): −0.9837 | log intensity, ESTs, Moderately similar to JC4969 pig-c protein (on MEFS): −1.045 | log intensity, ESTs, Moderately similar to NFY-C (on MEFS): −0.2427 | log intensity, ESTs, Weakly similar to A46302 PTB-associated splicing factor, long form (on MEFS): 2.695 | log intensity, ESTs, Weakly similar to ALU8_HUMAN ALU SUBFAMILY SX (on MEFS): 4.578 | log intensity, ESTs, Weakly similar to ALUC_HUMAN (on MEFS): 2.7193 | log intensity, ESTs, Weakly similar to ALUF_HUMAN (on MEFS): 0.5876 | log intensity, ESTs, Weakly similar to KIAA1330 protein (on MEFS): 1.182 | log intensity, ESTs, Weakly similar to KIAA1399 protein (on MEFS): 2.8 | log intensity, ESTs, Weakly similar to T32252 hypothetical protein T15B7.2 (on MEFS): 3.333 | log intensity, ESTs, Weakly similar to Z132_HUMAN ZINC FINGER PROTEIN 13 (on MEFS): 2.122 | log intensity, F37Esophageal cancer-related gene-coding leucine-zipper motif (FEZ1) (on MEFS): 2.104 | log intensity, FLICE-like inhibitory protein short form (on MEFS): 4.928 | log intensity, GS1999full mRNA (on MEFS): 0.8499 | log intensity, H1 histone family, member X (H1FX) (on MEFS): 4.51 | log intensity, H2A histone family, member X (on MEFS): −0.04057 | log intensity, H. sapiens skeletal embryonic myosin light chain 1 (MLC1) (on MEFS): 2.36 | log intensity, HT016 mRNA (on MEFS): 2.452 | log intensity, Homo sapiens nudix (nucleoside diphosphate linked moiety X)-type motif (r1198) (on MEFS): 6.428 | log intensity, Human DNA sequence from clone RP4-781L3 on chromosome 1p34.3-36.11 (on MEFS): 4.439 | log intensity, Human DNA sequence from clone RP11-446H13 on chromosome 10 (on MEFS): 2.12 | log intensity, Human MLC1emb gene for embryonic myosin alkaline light chain, promoter and exon 1 (on MEFS): 4.04 | log intensity, Human clone 23826 mRNA sequence (on MEFS): 1.443 | log intensity, Human embryonic myosin alkali light chain (MLC1) (on MEFS): 4.115 | log intensity, Human extracellular matrix protein 1 (ECM1) (on MEFS): 1.376 | log intensity, Human mRNA for pro-alpha 1 (II) collagen 3end C-term. (on MEFS): 2.157 | log intensity, Human rho GDI mRNA (on MEFS): −0.6515 | log intensity, KIAA0127 gene product (KIAA0127) (on MEFS): 3.002 | log intensity, KIAA0346 protein (on MEFS): 1.415 | log intensity, KIAA0418 gene product (on MEFS): 0.03438 | log intensity, KIAA0761 protein (on MEFS): 1.059 | log intensity, KIAA0882 protein (on MEFS): 4.675 | log intensity, KIAA0918 protein (on MEFS): −0.575 | log intensity, KIAA1415 protein (on MEFS): 1.743 | log intensity, KIAA1511 protein (on MEFS): 1.575 | log intensity, Kruppel-like factor 8 (KLF8) (on MEFS): 1.639 | log intensity, LIM homeobox protein 1 (LHX1) (on MEFS): 0.08556 | log intensity, LYST-interacting protein LIP3 (on MEFS): −0.3125 | log intensity, MAD (mothers against decapentaplegic, Drosophila) homolog 6 (MADH6) (on MEFS): 3.5309 | log intensity, MYC-associated zinc finger protein (purine-binding transcription factor) (MAZ) (on MEFS): 0.5113 | log intensity, Novel human mRNA from chromosome 22 (on MEFS): 3.058 | log intensity, PNAS-145 mRNA (on MEFS): 4.2868 | log intensity, PRO1957 mRNA (on MEFS): 4.227 | log intensity, PTPRF interacting protein, binding protein 2 (liprin beta 2) (on MEFS): 2.773 | log intensity, Pig10 (PIG10) (on MEFS): 1.098 | log intensity, SG2NA beta isoform (on MEFS): −1.534 | log intensity, Similar to B9 protein, clone MGC: 11339 (on MEFS): 2.292 | log intensity, Similar to RIKEN cDNA C330013D18 gene, clone MGC: 11226 (on MEFS): 1.427 | log intensity, Similar to lipase protein, clone MGC: 2843 (on MEFS): 0.9617 | log intensity, X75208 H. sapiens HEK2 mRNA for protein tyrosine kinase receptor (on MEFS): 1.082 | log intensity, adaptor-related protein complex 3, beta 2 subunit (AP3B2) (on MEFS): 1.074 | log intensity, adenylate cyclase 8 (brain) (ADCY8) (on MEFS): −2.261 | log intensity, alpha 2,8-sialyltransferase (on MEFS): 1.055 | log intensity, aminolevulinate, delta-, dehydratase, clone MGC: 5057 (on MEFS): 2.769 | log intensity, annexin A6 (ANXA6), transcript variant 1 (on MEFS): 4.5 | log intensity, apolipoprotein A-II (APOA2) (on MEFS): 4.759 | log intensity, apolipoprotein C-I (APOC1) (on MEFS): 5.51 | log intensity, arrestin, beta 1 (ARRB1), transcript variant 1 (on MEFS): −0.4092
